Structures can show the parent of a compound that is named as a salt.
Test system: mice
Experiment: SmartCube in vivo neuropharmacological behavioral assay
Conditions: for minimal effective dose: Mus musculus, ip, dose having 50% or more total activity in SmartCube, i.p., read-out: MED (minimal effective dose); for AD: antidepressant, percent probability / AG: analgesic, percent probability / AP: antipsychotic, percent probability / AX: anxiolytic, percent probability / CE: cognitive enhancer, percent probability / HA: hallucinogenic, percent probability / MS: mood stabilizer, percent probability / PS, percent probability / SD: sedative hypnotic, percent probability / SE: side effects, percent probability / UN: uncharacterized CNS activity, percent probability / XG: anxiogenic, percent probability: SmartCube, i.p. 15 min before test, at the MED
Experimental: The compounds were evaluated for their CNS related properties (e.g., the treatment, prevention or diagnosis of CNS or CNS-related disorders and/or amelioration of symptoms) using neuropharmacological screening methods described in S. L. Roberts et al., Front. Neurosci. 2011, 5:103 (hereinafter referred to as “Roberts,” the contents of which are incorporated herein by reference in their entirety).
According to Roberts, intact systems are useful in detecting improvement in disease-relevant endpoints, because psychiatric diseases generally result from disorders of cell-cell communication or circuitry. The endpoints are typically behavioral in nature, often requiring human observation and interpretation. In order to test multiple compounds for behavioral effects relevant to neurological and psychiatric diseases and disorders, PsychoGenics, Inc. (Paramus, N.J. “PGI”) developed SmartCube®, an automated system in which behaviors of compound-treated mice are captured by digital video and analyzed with computer algorithms to facilitate testing of multiple compounds for behavioral effects relevant to psychiatric disease. (D. Brunner et al., Drug Discov. Today 2002, 7:S107-S112; Alexandrov et al., Eur. J. Pharmacol. 2015, 753:127-134; the contents of each of which are incorporated herein by reference in their entirety).
The SmartCube® system is described in Example 2.2 of U.S. Pat. No. 9,758,529 and Example 289 of WIPO Publication No. WO2018/023070, the contents of each of which are incorporated herein by reference in their entirety.
According to the present disclosure, compounds identified may be evaluated using the SmartCube® system. The results of such analysis correlate certain patterns or combinations of behaviors to CNS effects along a percent probability scale of 0-100 where zero (O) reflects the limit of quantitation (LOQ).
The compounds of the present disclosure were evaluated for their CNS related properties (e.g., the treatment, prevention or diagnosis of CNS or CNS-related disorders and/or amelioration of symptoms) using neuropharmacological screening methods described in S. L. Roberts et al., Front. Neurosci. 2011, 5:103 (hereinafter referred to as “Roberts,” the contents of which are incorporated herein by reference in their entirety).
The SmartCube® system described herein was utilized to compare the behavioral signature of a test compound to a database of behavioral signatures obtained using a large set of diverse reference compounds (including but not limited to antipsychotics, anxiolytics, antidepressants and bipolar disorder medicine), thereby predicting the neuropharmacological effects of a test compound by similarity to major classes of compounds. It produces an activity signature indicating the probability that the activity of the test compound at the administered dose matches a given class of neuropharmacological agents. The test compound is simultaneously compared against multiple classes of agents; thus, a separate probability is generated for each behavioral effect measured (such as but not limited to anxiolytic activity and analgesic activity).
The compounds of the present disclosure were dissolved in a mixture of Pharmasolve™ (N-methyl-2-pyrrolidone (NMP)) and were injected i.p. 15 min. before the behavioral test. For each compound, injections were administered at different dose levels (e.g., 0.3, 1, 3, 10 and 30 mg per kg (mpk)). A compound's minimal effective dose (MED; see Table 3) is a measure of the compound's potency. The MED was defined as the dose (in mpk) having 50% or more total activity in SmartCube®. For each behavioral effect measured, results at the MED are presented. CNS activities of the compounds were recorded (see Table 2). In Table 1, a key to the percent probabilities (probability×100) for each behavioral effect (“X”) are defined provided, where LOQ is the limit of quantification.

SMILES | minimal effective dose [mg/kg] | AD: antidepressant, percent probability | AG: analgesic, percent probability | AP: antipsychotic, percent probability | AX: anxiolytic, percent probability | CE: cognitive enhancer, percent probability | HA: hallucinogenic, percent probability | MS: mood stabilizer, percent probability | PS, percent probability | SD: sedative hypnotic, percent probability | SE: side effects, percent probability | UN: uncharacterized CNS activity, percent probability | XG: anxiogenic, percent probability
Clc1cccc2c1C1C=CC2N1 (stereo not shown) [Compound 11, 3-Chloro-11-azatricyclo[6.2.1.0^2,7]undeca-2,4,6,9-tetraene hydrochloride] | > 30 | + (LOQ ≤ X < 5%) | + (LOQ ≤ X < 5%) | + (LOQ ≤ X < 5%) | ++ (5% ≤ X < 25%) | ++ (5% ≤ X < 25%) | + (LOQ ≤ X < 5%) | + (LOQ ≤ X < 5%) | + (LOQ ≤ X < 5%) | + (LOQ ≤ X < 5%) | + (LOQ ≤ X < 5%) | ++ (5% ≤ X < 25%) | + (LOQ ≤ X < 5%)
CC1=C(C)C2NC1c1ccccc12 [Compound 59, 9,10-Dimethyl-11-azatricyclo[6.2.1.0^2,7]undeca-2,4,6,9-tetraene hydrochloride] | 10 to 30 | ++++ (50% ≤ X <1 00%) | + (LOQ ≤ X < 5%) | + (LOQ ≤ X < 5%) | ++ (5% ≤ X < 25%) | ++ (5% ≤ X < 25%) | ++ (5% ≤ X < 25%) | + (LOQ ≤ X < 5%) | + (LOQ ≤ X < 5%) | + (LOQ ≤ X < 5%) | + (LOQ ≤ X < 5%) | + (LOQ ≤ X < 5%) | + (LOQ ≤ X < 5%)
CC(C)N1C2CCC1c1cc(Cl)ccc12 (stereo not shown) [Compound 28, 4-Chloro-11-(propan-2-yl)-11-azatricyclo[6.2.1.0^2,7]undeca-2,4,6-triene hydrochloride] | > 30 | +++ (25% ≤ X < 50%) | + (LOQ ≤ X < 5%) | + (LOQ ≤ X < 5%) | ++ (5% ≤ X < 25%) | + (LOQ ≤ X < 5%) | + (LOQ ≤ X < 5%) | + (LOQ ≤ X < 5%) | + (LOQ ≤ X < 5%) | + (LOQ ≤ X < 5%) | ++ (5% ≤ X < 25%) | ++ (5% ≤ X < 25%) | + (LOQ ≤ X < 5%)
Cc1cccc2c1C1CCC2N1C(C)C (stereo not shown) [Compound 31, 3-Methyl-11-(propan-2-yl)-11-azatricyclo[6.2.1.0^2,7]undeca-2,4,6-triene hydrochloride] | 10 to 30 | ++ (5% ≤ X < 25%) | ++ (5% ≤ X < 25%) | + (LOQ ≤ X < 5%) | ++ (5% ≤ X < 25%) | + (LOQ ≤ X < 5%) | + (LOQ ≤ X < 5%) | + (LOQ ≤ X < 5%) | + (LOQ ≤ X < 5%) | ++ (5% ≤ X < 25%) | + (LOQ ≤ X < 5%) | +++ (25% ≤ X < 50%) | + (LOQ ≤ X < 5%)
CC1CC2NC1c1ccccc12 (stereo not shown) [Compound 50, 9-Methyl-11-azatricyclo[6.2.1.0^2,7]undeca-2,4,6-triene hydrochloride] | 10 to 30 | ++ (5% ≤ X < 25%) | ++ (5% ≤ X < 25%) | + (LOQ ≤ X < 5%) | + (LOQ ≤ X < 5%) | ++ (5% ≤ X < 25%) | + (LOQ ≤ X < 5%) | + (LOQ ≤ X < 5%) | + (LOQ ≤ X < 5%) | + (LOQ ≤ X < 5%) | + (LOQ ≤ X < 5%) | +++ (25% ≤ X < 50%) | + (LOQ ≤ X < 5%)
c1ccc2c(c1)C1CCC2N1C1CCCC1 [Compound 43, 11-Cyclopentyl-11-azatricyclo[6.2.1.0^2,7]undeca-2,4,6-triene hydrochloride] | 10 to 30 | ++++ (50% ≤ X <1 00%) | + (LOQ ≤ X < 5%) | + (LOQ ≤ X < 5%) | ++ (5% ≤ X < 25%) | + (LOQ ≤ X < 5%) | + (LOQ ≤ X < 5%) | + (LOQ ≤ X < 5%) | ++ (5% ≤ X < 25%) | + (LOQ ≤ X < 5%) | + (LOQ ≤ X < 5%) | ++ (5% ≤ X < 25%) | + (LOQ ≤ X < 5%)
CC(C)N1C2C=CC1c1cc(F)c(F)cc12 [Compound 6, 4,5-Difluoro-11-(propan-2-yl)-11-azatricyclo[6.2.1.0^2,7]undeca-2,4,6,9-tetraene hydrochloride] | > 30 | ++ (5% ≤ X < 25%) | ++++ (50% ≤ X <1 00%) | + (LOQ ≤ X < 5%) | + (LOQ ≤ X < 5%) | + (LOQ ≤ X < 5%) | + (LOQ ≤ X < 5%) | + (LOQ ≤ X < 5%) | ++ (5% ≤ X < 25%) | + (LOQ ≤ X < 5%) | + (LOQ ≤ X < 5%) | + (LOQ ≤ X < 5%) | + (LOQ ≤ X < 5%)

Reference: patent US20230109801A1 (Blue Oak Pharmaceuticals, Inc., priority 2020, published 2023)
